Assay [1] deals with SW480 colon carcinoma cells. The assay is described as follows: Cell viability assay (CellTiter-Glo). The assay is classed as cell-based, human. To be noted: Homo sapiens, 96 h; SW480 cells, CellTiter-Glo, four days incubation.
Assay [2] concerns α-smooth muscle actin (αSMA) positive LL29 cells. The assay is described as follows: Inhibition of fibrotic process: αSMA in TGF-β1 treated primary human fibroblasts from IPF patients.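 On all read-outs here: controls were TGF-β1 stimulated wells with DMSO vehicle (positive) and cells given DMSO alone (negative), cultured in F12 medium with 1% fetal bovine serum.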 The class given is cell-based. To be noted: Homo sapiens, Fibroblast; for EC50: 96 h, Table 8, LL29 fibroblasts from IPF patients, TGF-β1 20 ng/mL, 4 days, dose-response 10 μM to 0.94 nM; for inhibition at 10 µM: read-out: percent value in parentheses beside EC50 >10 μM.

Assay [3] relates to Wnt pathway (Sp5-Luc reporter, TCF/LEF binding sites) in SW480 colon carcinoma cells. The assay is described as follows: Screening assay for Wnt activity: Sp5-Luc reporter gene assay.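 Further: firefly luciferase luminescence read in stably transduced SW480 cells carrying the Sp5 promoter reporter with eight TCF/LEF sites, compounds given in 0.1% DMSO final.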 The class given is cell-based, human. Conditions: Homo sapiens; Sp5-Luc reporter, SW480 cells, 36 to 48 hours.
Description: The screening assay for Wnt activity is described as follows.
Following incubation, 15 μl of BriteLite Plus luminescence reagent (Perkin Elmer) was added to each well of the 384-well assay plates. The plates were placed on an orbital shaker for 2 min and then luminescence was quantified using the Envision (Perkin Elmer) plate reader.
In assay [4] the test system is Tau phosphorylation at Ser396 (pSer396). The assay is described as follows: Tau phosphorylation assay (pSer396 ELISA / western blot) in SH-SY5Y cells.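 Further: EC50 for reduction of Tau pSer396 in lysed cells, measured by colorimetric ELISA or chemiluminescent western blot, both using the same pSer396 antibody.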 The class given is cell-based, human. Conditions: Homo sapiens; SH-SY5Y cells, overnight (16-18 h) exposure; read-out: pSer396 Tau EC50.
Description: Two days before treatment, cells were seeded onto 96 well plates at 5×10^4 cells/well.
Wells were visually checked for cell death or change in morphology and supernatants were tested for cytotoxicity by measurement of lactate dehydrogenase release (LDH, CytoToxOne kit, Promega) if necessary.
Cells were lysed with RIPA buffer complemented with phosphatase and protease inhibitors then lysates were spun down at 12,000 g for 10 min to remove any cellular debris. Lysates are then either directly tested for pSer396 by ELISA (Life Technology, Kit KHB7031) or loaded on NuPage Bis-Tris gels for western blot analysis. Colorimetric detection of ELISA signal is performed by Cytation3 plate reader (Biotek) and the chemiluminescence signal for HRP-linked antibodies used in western blotting is detected using a Carestream Image Station. The same pSer396 antibody is used for detection of pTau in both assays.
Assay [5] has as its target recombinant DYRK1A kinase (Homo sapiens (Human), UniProt Q13627). Kind of assay: DYRK1A kinase assay (Ser/Thr 18 peptide Z-lyte FRET).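 Further: Read-out is the coumarin to fluorescein emission ratio, referenced to unphosphorylated (0%) and phosphorylated (100%) Ser/Thr 18 peptide controls, values from dose-response curves by non-linear regression.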 The class given is biochemical. To be noted: 30 μM ATP, 1 h room temperature.
In assay [6] the target is recombinant GSK3β kinase (Homo sapiens (Human), UniProt P49841). The assay is described as follows: GSK3β kinase assay (Ser/Thr 09 peptide Z-lyte FRET).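 Further: kinase activity read as coumarin to fluorescein emission ratio, 11-point threefold dilutions from 10 µM to 0.0003 µM in duplicate, unphosphorylated and phosphorylated peptide as 0% and 100% controls.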 The assay is classed as biochemical. To be noted: 46 μM ATP, 1 h room temperature.
Sequence of recombinant GSK3β kinase (P49841 whole entry): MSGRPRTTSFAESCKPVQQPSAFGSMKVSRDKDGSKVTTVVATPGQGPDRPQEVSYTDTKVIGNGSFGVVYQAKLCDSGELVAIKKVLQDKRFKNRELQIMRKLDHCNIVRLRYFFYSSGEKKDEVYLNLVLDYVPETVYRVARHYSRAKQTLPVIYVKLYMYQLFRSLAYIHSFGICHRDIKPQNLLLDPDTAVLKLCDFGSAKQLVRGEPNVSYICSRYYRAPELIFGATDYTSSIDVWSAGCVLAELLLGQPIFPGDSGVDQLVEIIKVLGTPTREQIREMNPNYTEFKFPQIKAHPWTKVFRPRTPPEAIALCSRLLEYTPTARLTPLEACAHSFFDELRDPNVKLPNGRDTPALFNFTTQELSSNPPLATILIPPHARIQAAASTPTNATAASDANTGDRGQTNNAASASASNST
The subject of assay [7] is IL-6. Kind of assay: IL-6 inhibition in LPS-stimulated human peripheral blood mononuclear cells (HTRF).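 Further: IL-6 detected by HTRF with an XL665- and Cryptate-labelled anti-IL-6 antibody pair, samples run in duplicate, EC50 obtained from a four-parameter Levenberg-Marquardt curve fit.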 The class given is cell-based. Conditions: Homo sapiens, PBMC; Table 9; huPBMCs, LPS 50 ng/mL, 22 hours; dose-response starting from 10 μM.
Description: After 22 hour incubation, a mixture of anti-IL6 XL665 and anti-IL-6 Cryptate diluted in reconstitution buffer (Catalog #62IL6PEC, Cisbio Inc., Bedford, Mass.) was added to each well. […] All samples were processed in duplicate. […] EC50 was determined using software generated by Dotmatics Limited (Windhill Bishops Stortford Herts, UK) using the Levenberg-Marquardt 4 parameter fitting procedure with finite different gradients.

Drawing on patent US10287267B2, “Isoquinolin-3-yl carboxamides and preparation and use thereof” (Samumed, LLC, priority 2016, dated 2019), this text covers EC50 and inhibition for 18 molecules.

Take `CC(C(=O)Nc1cc2cc(-c3cnn(C)c3)ccc2cn1)N1CCCCC1` (stereo not drawn) [Compound 314, N-(6-(1-Methyl-1H-pyrazol-4-yl)isoquinolin-3-yl)-2-(piperidin-1-yl) propanamide]: the EC50 came out at 1200 nM in assay [1]; 45 nM in assay [2]; 859 nM in assay [3]; 128 nM in assay [4]; 22.1 nM in assay [5]; 12 nM in assay [6]. This molecule had an EC50 in assay [7] of 1270 nM.
In the case of `[2H]C1([2H])CCC([2H])([2H])N1CC(=O)Nc1cc2cc(-c3cnn(C)c3)ccc2cn1` [Compound 315, N-(6-(1-Methyl-1H-pyrazol-4-yl)isoquinolin-3-yl)-2-(pyrrolidin-1-yl-2,2,5,5-d4)acetamide], the EC50 in assay [1] was determined as 1250 nM; in assay [2], 1820 nM; in assay [3] it was 1590 nM; in assay [4], 346 nM; in assay [5], 12.3 nM; in assay [6], 44 nM. Besides, the EC50 in assay [7] was 819 nM.
Take `CN1CCN(C(=O)Nc2cc3cc(-c4cnn(C)c4)ccc3cn2)CC1` [Compound 316, 4-Methyl-N-(6-(1-methyl-1H-pyrazol-4-yl)isoquinolin-3-yl)piperazine-1-carboxamide]: the EC50 in assay [1] came out at 2340 nM; in assay [2] it was 1080 nM; in assay [3], 2840 nM; in assay [4] it was 8780 nM; in assay [5] it was 4.2 nM; in assay [6] it was 509 nM. Also, the EC50 in assay [7] was 395 nM.
Consider `C[C@@H](C(=O)Nc1cc2cc(-c3cnn(C)c3)ccc2cn1)N1CCCC1` [Compound 317, (S)—N-(6-(1-Methyl-1H-pyrazol-4-yl)isoquinolin-3-yl)-2-(pyrrolidin-1-yl) propanamide], for which the concentration for a half-maximal effect (EC50) in assay [1] stood at 6340 nM; in assay [2], 174 nM; in assay [3], 1270 nM; in assay [4], 200 nM; in assay [5], 37 nM; in assay [6] it was 30 nM. This molecule registered a half-maximal effective concentration (EC50) in assay [7] of 1900 nM.
For the molecule `C[C@H](C(=O)Nc1cc2cc(-c3cnn(C)c3)ccc2cn1)N1CCCC1` [Compound 318, (R)—N-(6-(1-Methyl-1H-pyrazol-4-yl)isoquinolin-3-yl)-2-(pyrrolidin-1-yl) propanamide], the EC50 in assay [1] stood at 940 nM; in assay [2], 73 nM; in assay [3], 442 nM; in assay [4] it was 72 nM; in assay [5], 58.8 nM; in assay [6] it was 12 nM. It took 1030 nM to reach a half-maximal effect in assay [7] (EC50).
For `Cn1cc(-c2ccc3cnc(NC(=O)[C@H]4CCCN4)cc3c2)cn1` [Compound 320, (R)—N-(6-(1-Methyl-1H-pyrazol-4-yl)isoquinolin-3-yl)pyrrolidine-2-carboxamide], the concentration giving a half-maximal response (EC50) was 1780 nM in assay [1]; 69 nM in assay [2]; 1140 nM in assay [3]; 280 nM in assay [4]; 9.9 nM in assay [5]; 10 nM in assay [6]. The same molecule yielded an EC50 in assay [7] of 1260 nM.
On to `Cn1cc(-c2ccc3cnc(NC(=O)C4CC5(C4)CN(C(=O)C(F)(F)F)C5)cc3c2)cn1` [Compound 325, N-(6-(1-Methyl-1H-pyrazol-4-yl)isoquinolin-3-yl)-2-(2,2,2-trifluoroacetyl)-2-azaspiro[3.3]heptane-6-carboxamide], for which the EC50 was found to be 526 nM in assay [1]; 1300 nM in assay [2]; 552 nM in assay [3]; 440 nM in assay [4]; 2.1 nM in assay [5]; 3 nM in assay [6]. Moreover, the EC50 in assay [7] came to 357 nM.
Take `Cn1cc(-c2ccc3cnc(NC(=O)C4CC5(C4)CN(CCF)C5)cc3c2)cn1` [Compound 326, 2-(2-Fluoroethyl)-N-(6-(1-methyl-1H-pyrazol-4-yl)isoquinolin-3-yl)-2-azaspiro[3.3]heptane-6-carboxamide]: the EC50 was 400 nM in assay [1]; above 10000 nM in assay [2]; 438 nM in assay [3]; 574 nM in assay [4]; 2.9 nM in assay [5]; 19 nM in assay [6]. The same molecule displayed a concentration giving a half-maximal response (EC50) in assay [7] of 380 nM. Further, in assay [2], the inhibition at 10 µM worked out at 47.2%.
On to `Cn1cc(-c2ccc3cnc(NC(=O)[C@H]4CC[C@H](N(C)C)CC4)cc3c2)cn1` [Compound 327, trans-4-(Dimethylamino)-N-(6-(1-methyl-1H-pyrazol-4-yl)isoquinolin-3-yl)cyclohexane-1-carboxamide], for which the EC50 in assay [1] is 1580 nM; in assay [2], 58 nM; in assay [3], 258 nM; in assay [4], 411 nM; in assay [5], 1.7 nM; in assay [6] it was 66 nM. Moreover, in assay [7], the EC50 was 947 nM.
Take `Cn1cc(-c2ccc3cnc(NC(=O)C4CCN(C(=O)c5ccccc5)CC4)cc3c2)cn1` [Compound 328, 1-Benzoyl-N-(6-(1-methyl-1H-pyrazol-4-yl)isoquinolin-3-yl)piperidine-4-carboxamide]: the EC50 in assay [1] was 929 nM; in assay [2] it was above 10000 nM; in assay [3], 804 nM; in assay [4] it was 231 nM; in assay [5], 1.9 nM; in assay [6], 16 nM. In assay [7], this molecule registered a concentration for a half-maximal effect (EC50) of 398 nM. The inhibition at 10 µM in assay [2] came to 34.5%.
Take `CC(=O)N1CCC(C(=O)Nc2cc3cc(-c4cnn(C)c4)ccc3cn2)CC1` [Compound 329, 1-Acetyl-N-(6-(1-methyl-1H-pyrazol-4-yl)isoquinolin-3-yl)piperidine-4-carboxamide]: the EC50 in assay [1] turned out to be 4120 nM; in assay [2] it was 212 nM; in assay [3], 1170 nM; in assay [4] it was 524 nM; in assay [5], 2.7 nM; in assay [6], 29 nM. Also, a half-maximal effect in assay [7] (EC50) was put at 1160 nM.
In the case of `CN1CCC(N2CCC(C(=O)Nc3cc4cc(-c5cnn(C)c5)ccc4cn3)CC2)CC1` [Compound 331, 1′-Methyl-N-(6-(1-methyl-1H-pyrazol-4-yl)isoquinolin-3-yl)-[1,4′-bipiperidine]-4-carboxamide], the EC50 came to 3120 nM in assay [1]; 96 nM in assay [2]; 2990 nM in assay [3]; 311 nM in assay [4]; 1.8 nM in assay [5]; 55 nM in assay [6]. Moreover, in assay [7], it took 882 nM to reach a half-maximal effect (EC50).
With `Cn1cc(-c2ccc3cnc(NC(=O)C4CCN(C5CCOCC5)CC4)cc3c2)cn1` [Compound 332, N-(6-(1-Methyl-1H-pyrazol-4-yl)isoquinolin-3-yl)-1-(tetrahydro-2H-pyran-4-yl)piperidine-4-carboxamide], the EC50 was determined as 1000 nM in assay [1]; 291 nM in assay [2]; 662 nM in assay [3]; 249 nM in assay [4]; 3.5 nM in assay [5]; 39 nM in assay [6]. Further, a half-maximal effect in assay [7] (EC50) was put at 1070 nM.
Regarding `Cn1cc(-c2ccc3cnc(NC(=O)[C@H]4CC[C@H](CO)CC4)cc3c2)cn1` [Compound 333, trans-4-(Hydroxymethyl)-N-(6-(1-methyl-1H-pyrazol-4-yl)isoquinolin-3-yl)cyclohexane-1-carboxamide], the EC50 came out at 641 nM in assay [1]; 61 nM in assay [2]; 384 nM in assay [3]; 1100 nM in assay [4]; 1.2 nM in assay [5]; 60 nM in assay [6]. Moreover, a half-maximal effect in assay [7] (EC50) was put at 790 nM.
On to `COC(=O)CN1CCC(C(=O)Nc2cc3cc(-c4cnn(C)c4)ccc3cn2)CC1` [Compound 334, Methyl 2-(4-((6-(1-methyl-1H-pyrazol-4-yl)isoquinolin-3-yl)carbamoyl)piperidin-1-yl)acetate], for which the EC50 in assay [1] came to 7370 nM; in assay [2], 63 nM; in assay [3] it was 787 nM; in assay [4], 820 nM; in assay [5], 1.6 nM; in assay [6], 47 nM. In assay [7], this molecule registered an EC50 of 263 nM.
As to `Cn1cc(-c2ccc3cnc(NC(=O)C4CCN(Cc5ccccc5)CC4)cc3c2)cn1` [Compound 335, 1-Benzyl-N-(6-(1-methyl-1H-pyrazol-4-yl)isoquinolin-3-yl)piperidine-4-carboxamide], the 50% effective concentration (EC50) in assay [1] came to 1120 nM; in assay [2] it was 111 nM; in assay [3] it was 993 nM; in assay [4], 289 nM; in assay [5] it was 3.8 nM; in assay [6], 71 nM. In addition, a half-maximal response in assay [7] (EC50) required 401 nM.
`Cn1cc(-c2ccc3cnc(NC(=O)C4CCN(C(=O)CN5CCCC5)CC4)cc3c2)cn1` [Compound 336, N-(6-(1-Methyl-1H-pyrazol-4-yl)isoquinolin-3-yl)-1-(2-(pyrrolidin-1-yl)acetyl)piperidine-4-carboxamide]: the concentration for a half-maximal effect (EC50) is 510 nM in assay [1]; above 10000 nM in assay [2]; 395 nM in assay [3]; 820 nM in assay [4]; 2.9 nM in assay [5]; 83 nM in assay [6]. Also, in assay [7], it took 569 nM to reach a half-maximal effect (EC50). In assay [2], the inhibition at 10 µM was found to be 38.4%.
On to `Cn1cc(-c2ccc3cnc(NC(=O)[C@@H]4CCCCN4)cc3c2)cn1` [Compound 340, (S)—N-(6-(1-Methyl-1H-pyrazol-4-yl)isoquinolin-3-yl)piperidine-2-carboxamide], for which the EC50 came out at 2230 nM in assay [1]; 413 nM in assay [2]; 932 nM in assay [3]; 2300 nM in assay [4]; 1.9 nM in assay [5]; 257 nM in assay [6]. The same molecule registered an EC50 in assay [7] of 562 nM.
